Read-outs that look alike come from different tables or passages of the source.

Data set [1] has as its system Plasmodium falciparum K1. The data set is described as follows: microbe, parasite or virus in culture. The format is cell-based. As to conditions: for EC50: Plasmodium falciparum, K1, read-out: EC50 P. falc.; for drop / loss in activity (fold) / decrease in EC50 value relative to the unsubstituted analogue 56: P. falciparum K1; for drop / loss in activity (fold): C-ring variants, comparator not stated explicitly; for decrease in EC50 value relative to the unsubstituted analogue 56: relative to 56. The protocol:
(§1) V. Design and Results of the in vitro & in vivo Studies.
A. Drug inhibition of in vitro cultured P. falciparum parasite:2 All in vitro assays were carried out twice independently. In vitro activity against the erythrocytic stages of P. falciparum was determined by using a 3H-hypoxanthine incorporation assay,5-6 using the […]
were dissolved in DMSO at 10 mg/mL and added to parasite cultures incubated in RPMI […]
haematocrit (0.3% parasitaemia). Serial doubling dilutions of each drug were prepared in […]
After 48 h, 50 µL of 3H-hypoxanthine (= 0.5 µCi) was added to each well of the plate. The plates were incubated for an additional 24 h under the same conditions. The plates were then harvested with a Betaplate cell harvester (Wallac, Zurich, Switzerland), and the red blood cells were transferred onto a glass fiber filter and then washed with distilled water. The dried filters were inserted into a plastic foil with 10 mL of scintillation fluid and were counted in a Betaplate™ liquid scintillation counter (Wallac, Zurich, […]

For data set [2], the system named is L6 cells. Kind of data set: In vitro cytotoxicity assay in L6 cells (Alamar Blue). Format: cell-based. As to conditions: Rattus norvegicus. The protocol:
as §1
A. Drug inhibition of in vitro cultured P. falciparum parasite:2 All in vitro assays were carried out twice independently. In vitro activity against the erythrocytic stages of P. […]
B. In vitro cytotoxicity assay:2 Assays were performed in 96-well microtiter plates, each […]
mM) and 10% fetal bovine serum, and 4 x 10^4 L-6 cells (a primary cell line derived from rat skeletal myoblasts). Serial drug dilutions of seven 3-fold dilution steps covering a range […]
After 72 h of incubation the plates were inspected […]
of Alamar Blue was then added to each well and the plates incubated for another 2 h.
Then the plates were read with a Spectramax Gemini XS microplate fluorometer (Molecular Devices Cooperation, Sunnyvale, CA, USA) using an excitation wave length of […]
Data were analysed using the microplate reader software Softmax Pro (Molecular Devices Cooperation, Sunnyvale, CA, USA).

The nature of data set [3]: Aqueous solubility estimated by nephelometry. The format is physicochemical. As to conditions: kinetic from dmso stock; Table 1; water; nephelometry; 1% DMSO; read-out: Solubility water. The protocol:
III. Physicochemical Evaluation […]
Solubility Estimation: Aqueous solubility was estimated by nephelometry.
Compound in DMSO was spiked into either water, pH 6.5 phosphate buffer or 0.01N HCl
(approx. pH 2.0) with the final DMSO concentration being 1%. Samples were then
analyzed by Nephelometry to determine the solubility range as described previously.1

Setting [4] is: Table 1, A-ring variants, mammalian L6 cells, mean of two independent assays, read-out: EC50 L6 cells.
[5] abbreviates: Table 2, C-ring variants, L6 cells, mean of two independent assays, read-out: EC50 L6 cells.

Regarding `CCOC(=O)C1=C(C)N/C(=C/c2cc(C)n(C3CCN(C)CC3)c2C)C1=O` [Compound 19], the melting point (as a rule, the temperature, or range, at which the solid turns liquid) lay within 130 to 135 °C. In addition, the 50% effective concentration (EC50) (commonly the concentration at which the effect is half-maximal) in data set [1] was determined as 1.4 µM. In data set [2] (setting [4]), the 50% effective concentration (EC50) was determined as 7.8 µM.

The compound `CCOC(=O)C1=C(C)N/C(=C/c2cc(C)n(C3CCN(Cc4cnc(N5CCOCC5)nc4)CC3)c2C)C1=O` [Compound 53] displayed a melting point of 194 to 199 °C. For the same compound, the EC50 in data set [1] was 0.075 µM. For the same compound, in data set [2] (setting [4]), the EC50 is 28 µM.

Compound `CCOC(=O)C1=C(C)N/C(=C/c2cc(C)n(C3CCN(CCC(C)C)CC3)c2C)C1=O` [Compound 21] came in with a melting point of 158 to 162 °C. Further, in data set [1], the EC50 amounted to 0.19 µM. Also, the EC50 in data set [2] (setting [4]) was 22 µM.

For `CCOC(=O)C1=C(C)N/C(=C/c2cc(C)n(C3CCN(Cc4ccc(F)cc4)CC3)c2C)C1=O` [Compound 26], the EC50 in data set [1] came to 0.024 µM; in data set [2] (setting [4]), 51 µM. The solubility (in general, the dissolved amount per volume that the medium holds) in data set [3] was greater than 125 µM.

As for `CCOC(=O)C1=C(C)N/C(=C/c2cc(C)n(C3CCN(Cc4ccc(F)cc4F)CC3)c2C)C1=O` [Compound 27], the EC50 in data set [1] came out at 0.023 µM; in data set [2] (setting [4]) it was 23 µM. Besides, the solubility in data set [3] is greater than 125 µM.

As to `CCOC(=O)C1=C(C)N/C(=C/c2cc(C)n(C3CCN(Cc4cccn4C)CC3)c2C)C1=O` [Compound 50], the melting point was 190 to 194 °C. In addition, the concentration giving a half-maximal response (EC50) in data set [1] came to 0.012 µM. Moreover, in data set [2] (setting [4]), the EC50 worked out at 3 µM.

In the case of `Cc1cc(/C=C2/Nc3ccn(Cc4ccccc4)c(=O)c3C2=O)c(C)n1-c1ccccc1C(F)(F)F` [Compound 62, (E)-5-Benzyl-2-((2,5-dimethyl-1-(2-(trifluoromethyl)phenyl)-1H-pyrrol-3-yl)methylene)-1H-pyrrolo[3,2-c]pyridine-3,4(2H, 5H)dione], the melting point was 195 to 200 °C. In data set [1], the “drop / loss in activity (fold)” value is “fivefold” and the EC50 turned out to be 0.23 µM. Also, in data set [2] (setting [5]), the EC50 was determined as 43 µM.

`CCOC(=O)C1=C(C)N/C(=C/c2cc(C)n(C3CCN(Cc4ccn(C)n4)CC3)c2C)C1=O` [Compound 45] had a melting point of 180 to 184 °C. Moreover, in data set [1], the EC50 is 0.15 µM. In addition, the EC50 in data set [2] (setting [4]) turned out to be 36 µM.

In turn, `CCOC(=O)C1=C(C)N/C(=C/c2cc(C)n(C3CCN(Cc4cc(C)on4)CC3)c2C)C1=O` [Compound 47] came in with a melting point of 185 to 188 °C. Besides, the half-maximal effective concentration (EC50) in data set [1] is 0.1 µM. In data set [2] (setting [4]), the half-maximal effective concentration (EC50) is 42 µM.

For the compound `CCOC(=O)C1=C(C)N/C(=C/c2cc(C)n(C3CCN(C(C)c4ccc(C(F)(F)F)cc4)CC3)c2C)C1=O` (centres unmarked) [Compound 35], the EC50 is 0.007 µM in data set [1] and 4.26 µM in data set [2] (setting [4]).

Consider `CCOC(=O)C1=C(C)N/C(=C/c2cc(C)n(C3CCN(Cc4ccc(N5CCOCC5)cc4)CC3)c2C)C1=O` [Compound 54], for which the melting point is greater than 280 °C. The EC50 in data set [1] stood at 2.6 µM. In data set [2] (setting [4]), the EC50 worked out at 53 µM.

As for `CCOC(=O)C1=C(C)N/C(=C/c2cc(C)n(C3CCNCC3)c2C)C1=O` [Compound 18], the melting point is greater than 250 °C. For the same compound, the EC50 in data set [1] stood at 12 µM. For the same compound, in data set [2] (setting [4]), the EC50 was greater than 250 µM.

For the compound `CCOC(=O)C1=C(C)N/C(=C/c2cc(C)n(C3CCN(CCc4ccc(C(F)(F)F)cc4)CC3)c2C)C1=O` [Compound 33], the figures for the EC50 in data set [1] and in data set [2] (setting [4]) were 0.13 µM and 19 µM, respectively.

Consider `CCOC(=O)C1=C(C)N/C(=C/c2cc(C)n(C3CCN(CCN4CCOCC4)CC3)c2C)C1=O` [Compound 37], for which the melting point lay within 115 to 118 °C. In addition, the EC50 in data set [1] is 5.3 µM. The EC50 in data set [2] (setting [4]) is 89 µM.

Turning to `CCOC(=O)C1=C(C)N/C(=C/c2cc(C)n(C3CCN(CCN4CCCCC4)CC3)c2C)C1=O` [Compound 38], the melting point was 122 to 125 °C. In addition, in data set [1], the EC50 was 2.4 µM. For the same compound, in data set [2] (setting [4]), the concentration giving a half-maximal response (EC50) stood at 97 µM.

`CCOC(=O)C1=C(C)N/C(=C/c2cc(C)n(C3CCN(Cc4ccc(N5CCOCC5)nc4)CC3)c2C)C1=O` [Compound 52] yielded a melting point greater than 280 °C. In data set [1], the EC50 stood at 1.5 µM. Moreover, the EC50 in data set [2] (setting [4]) was 50 µM.

`CCCn1ccc2c(c1=O)C(=O)/C(=C\c1cc(C)n(-c3ccccc3C(F)(F)F)c1C)N2` [Compound 59]: the melting point was 180 to 185 °C. Further, in data set [1], the “drop / loss in activity (fold)” value is “tenfold” and the EC50 was determined as 0.15 µM. Besides, the EC50 in data set [2] (setting [5]) amounted to 34 µM.

In turn, `CCCN1CCC(n2c(C)cc(/C=C3/NC(C)=C(C(=O)OCC)C3=O)c2C)CC1` [Compound 22] yielded a melting point of 145 to 148 °C. For the same compound, in data set [1], the EC50 is 1.1 µM. Also, the EC50 in data set [2] (setting [4]) was 6.6 µM.

On to `CCOC(=O)C1=C(C)N/C(=C/c2cc(C)n(C3CCN(Cc4nccn4C)CC3)c2C)C1=O` [Compound 49], for which the melting point lay in the range of 186 to 189 °C. The EC50 in data set [1] was 1 µM. Moreover, the EC50 in data set [2] (setting [4]) was 16 µM.

As for `CCOC(=O)C1=C(C)N/C(=C/c2cc(C)n(C3CCN(CC4CCOCC4)CC3)c2C)C1=O` [Compound 41], the melting point was in the range of 180 to 183 °C. The EC50 in data set [1] was 0.11 µM. Also, the EC50 in data set [2] (setting [4]) is 43 µM.

As for `Cc1cc(/C=C2/Nc3ccn(CCN4CCOCC4)c(=O)c3C2=O)c(C)n1-c1ccccc1C(F)(F)F` [Compound 60], the melting point was 180 to 185 °C. Further, in data set [1], the “decrease in EC50 value relative to the unsubstituted analogue 56” value was “fivefold” and the half-maximal effective concentration (EC50) was 0.23 µM. For the same compound, the EC50 in data set [2] (setting [5]) came out at 65 µM.

As to `CCOC(=O)C1=C(C)N/C(=C/c2cc(C)n(C3CCN(CC4CC4)CC3)c2C)C1=O` [Compound 39], the melting point fell in the range of 142 to 146 °C. Moreover, in data set [1], the EC50 stood at 3.5 µM. Also, in data set [2] (setting [4]), the EC50 was 14 µM.

Take `Cc1cc(/C=C2/Nc3ccn(CCN(C)C)c(=O)c3C2=O)c(C)n1-c1ccccc1C(F)(F)F` [Compound 61]: the melting point was 125 to 128 °C. Further, in data set [1], the “decrease in EC50 value relative to the unsubstituted analogue 56” value is “fivefold” and the EC50 was determined as 0.25 µM. Also, in data set [2] (setting [5]), the EC50 came to 35 µM.

For `CCOC(=O)C1=C(C)N/C(=C/c2cc(C)n(C3CCN(CC(C)(C)C)CC3)c2C)C1=O` [Compound 23], the melting point was 139 to 142 °C. Besides, the EC50 in data set [1] was determined as 0.058 µM. In data set [2] (setting [4]), the EC50 was found to be 88 µM.

As to `COc1cc([C@@H]2c3cc4c(cc3[C@H](O)[C@H]3COC(=O)[C@H]23)OCO4)cc(OC)c1OC` [podophyllotoxin, reference compound], the EC50 in data set [2] (L6, read-out: EC50 L6 cells) was in the range of 0.009 to 0.022 µM.

Regarding `CCOC(=O)C1=C(C)N/C(=C/c2cc(C)n(C3CCN(CCc4ccccc4)CC3)c2C)C1=O` [Compound 31], the concentration for a half-maximal effect (EC50) in data set [1] was found to be 0.32 µM; in data set [2] (setting [4]), 107 µM.

In turn, `CCOC(=O)C1=C(C)N/C(=C/c2cc(C)n(C3CCN(CC4CCN(C)CC4)CC3)c2C)C1=O` [Compound 42] had a melting point of 230 to 235 °C. Besides, the EC50 in data set [1] is 1.4 µM. The EC50 in data set [2] (setting [4]) stood at 81 µM.

On to `CCOC(=O)C1=C(C)N/C(=C/c2cc(C)n(C3CCN(Cc4ncc[nH]4)CC3)c2C)C1=O` [Compound 46], for which the melting point lay within 185 to 190 °C. Further, the EC50 in data set [1] stood at 1.2 µM. In data set [2] (setting [4]), the EC50 was 28 µM.

Source of the values: publication PMC3963473, “Structure–Activity Relationship Studies of Pyrrolone Antimalarial Agents” (Chemmedchem, 2013).
